Results from patent US12642270B2, “Substituted thiophene carboxamides, thiophene carboxylic acids and derivatives thereof” (Bayer Aktiengesellschaft, priority 2019, dated 2026).

Assay: Log P by HPLC on reversed phase columns (EEC directive 79/831 Annex V.A8)
Type: physicochemical
Outline: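 Reversed-phase HPLC per EEC 79/831 Annex V.A8, LC-UV with 10→95% acetonitrile linear gradient; eluent [a] 0.1% formic acid (acidic), [b] 0.001 M ammonium acetate (neutral), [c] 0.1% phosphoric acid (acidic). Calibrated with C3–C16 straight-chain alkan-2-ones, linear interpolation of retention times; multiple values joined by "+".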

[1] = LogP method [a], compounds of formula (I), Table 1.1

| Compound | LogP (method marked [a]) | LogP [1] |
| --- | --- | --- |
| COC(=O)C(CC(F)F)NC(=O)c1sc(Br)c(Br)c1C(F)(F)F (stereo not shown) [1.0374] | 3.31^[a] | – |
| CCOC(=O)C(CC(C)C)NC(=O)c1sc(Br)c(Br)c1C(F)(F)F (stereo not shown) [1.0375] | 4.38^[a] | – |
| CCOC(=O)C(CCSC)NC(=O)c1sc(Br)c(Br)c1C(F)(F)F (stereo not shown) [1.0376] | 3.87^[a] | – |
| CCOC(=O)C(Cc1ccccc1)NC(=O)c1sc(Br)c(Br)c1C(F)(F)F (stereo not shown) [1.0377] | 4.31^[a] | – |
| COC(=O)CNC(=O)c1cc(C#N)c(Cl)s1 [1.0378] | 1.75^[a] | – |
| CCOC(=O)CNC(=O)c1cc(C#N)c(Cl)s1 [1.0379] | 2.08^[a] | – |
| CCOC(=O)C1(NC(=O)c2cc(C#N)c(Cl)s2)CC1 [1.0380] | 2.28^[a] | – |
| COC(=O)C(NC(=O)c1cc(C#N)c(Cl)s1)C1CC1 (stereo not shown) [1.0381] | 2.47^[a] | – |
| CCOC(=O)C(NC(=O)c1cc(C#N)c(Cl)s1)C(C)C (stereo not shown) [1.0382] | 3.20^[a] | – |
| CCOC(=O)C(CCSC)NC(=O)c1cc(C#N)c(Cl)s1 (stereo not shown) [1.0383] | 3.01^[a] | – |
| CCOC(=O)C(Cc1ccccc1)NC(=O)c1cc(C#N)c(Cl)s1 (stereo not shown) [1.0384] | 3.47^[a] | – |
| COC(=O)CNC(=O)c1cc(Cl)c(C#N)s1 [1.0385] | 1.77^[a] | – |
| CCOC(=O)CNC(=O)c1cc(Cl)c(C#N)s1 [1.0386] | 2.10^[a] | – |
| CCOC(=O)C1(NC(=O)c2cc(Cl)c(C#N)s2)CC1 [1.0387] | 2.32^[a] | – |
| COC(=O)C(NC(=O)c1cc(Cl)c(C#N)s1)C1CC1 (stereo not shown) [1.0388] | 2.50^[a] | – |
| CCOC(=O)C(NC(=O)c1cc(Cl)c(C#N)s1)C(C)C (stereo not shown) [1.0389] | 3.22^[a] | – |
| CCOC(=O)C(CCSC)NC(=O)c1cc(Cl)c(C#N)s1 (stereo not shown) [1.0390] | 3.03^[a] | – |
| CCOC(=O)C(Cc1ccccc1)NC(=O)c1cc(Cl)c(C#N)s1 (stereo not shown) [1.0391] | 3.48^[a] | – |
| COC(=O)CNC(=O)c1sc(Cl)c(C#N)c1Cl [1.0392] | 2.16^[a] | – |
| CCOC(=O)CNC(=O)c1sc(Cl)c(C#N)c1Cl [1.0393] | 2.54^[a] | – |
| CCOC(=O)C1(NC(=O)c2sc(Cl)c(C#N)c2Cl)CC1 [1.0394] | 2.69^[a] | – |
| COC(=O)C(NC(=O)c1sc(Cl)c(C#N)c1Cl)C1CC1 (stereo not shown) [1.0395] | 2.97^[a] | – |
| CCOC(=O)C(NC(=O)c1sc(Cl)c(C#N)c1Cl)C(C)C (stereo not shown) [1.0396] | 3.81^[a] | – |
| CCOC(=O)C(CCSC)NC(=O)c1sc(Cl)c(C#N)c1Cl (stereo not shown) [1.0397] | 3.52^[a] | – |
| CCOC(=O)C(Cc1ccccc1)NC(=O)c1sc(Cl)c(C#N)c1Cl (stereo not shown) [1.0398] | 4.05^[a] | – |

| Compound | LogP (method marked [a]) | LogP [1] |
| --- | --- | --- |
| COC(=O)CNC(=O)c1cc(C#N)c(Br)s1 [1.0399] | 1.79^[a] | – |
| CCOC(=O)CNC(=O)c1cc(C#N)c(Br)s1 [1.0400] | 2.11^[a] | – |
| CCOC(=O)C1(NC(=O)c2cc(C#N)c(Br)s2)CC1 [1.0401] | – | 2.30^[a] |
| COC(=O)C(NC(=O)c1cc(C#N)c(Br)s1)C1CC1 (stereo not shown) [1.0402] | – | 2.50^[a] |
| CCOC(=O)C(NC(=O)c1cc(C#N)c(Br)s1)C(C)C (stereo not shown) [1.0403] | – | 3.22^[a] |
| CCOC(=O)C(CCSC)NC(=O)c1cc(C#N)c(Br)s1 (stereo not shown) [1.0404] | – | 3.03^[a] |
| CCOC(=O)C(Cc1ccccc1)NC(=O)c1cc(C#N)c(Br)s1 (stereo not shown) [1.0405] | – | 3.48^[a] |
| COC(=O)CNC(=O)c1sc(Br)c(C#N)c1Br [1.0406] | – | 2.22^[a] |
| CCOC(=O)CNC(=O)c1sc(Br)c(C#N)c1Br [1.0407] | – | 2.61^[a] |
| CCOC(=O)C1(NC(=O)c2sc(Br)c(C#N)c2Br)CC1 [1.0408] | – | 2.71^[a] |
| COC(=O)C(NC(=O)c1sc(Br)c(C#N)c1Br)C1CC1 (stereo not shown) [1.0409] | – | 3.02^[a] |
| CCOC(=O)C(NC(=O)c1sc(Br)c(C#N)c1Br)C(C)C (stereo not shown) [1.0410] | – | 3.84^[a] |
| CCOC(=O)C(CCSC)NC(=O)c1sc(Br)c(C#N)c1Br (stereo not shown) [1.0411] | – | 3.55^[a] |
| CCOC(=O)C(Cc1ccccc1)NC(=O)c1sc(Br)c(C#N)c1Br (stereo not shown) [1.0412] | – | 4.08^[a] |
| COC(=O)C(C1CC1)N(O)C(=O)c1sc(Br)c(Br)c1F (stereo not shown) [1.0413] | – | 2.77^[a] |
| CCOC(=O)C1(NC(=O)c2sc(Cl)c(Cl)c2C(F)F)CC1 [1.0414] | – | 3.17^[a] |
| COC(=O)CNC(=O)c1sc(Cl)c(Cl)c1C(F)F [1.0415] | – | 2.61^[a] |
| CCOC(=O)CNC(=O)c1sc(Cl)c(Cl)c1C(F)F [1.0416] | – | 2.97^[a] |
| COC(=O)C(NC(=O)c1sc(Cl)c(Cl)c1C(F)F)C1CC1 (stereo not shown) [1.0417] | – | 3.33^[a] |
| CCOC(=O)C(NC(=O)c1sc(Cl)c(Cl)c1C(F)F)C(C)C (stereo not shown) [1.0418] | – | 4.13^[a] |
| CCOC(=O)C(CCSC)NC(=O)c1sc(Cl)c(Cl)c1C(F)F (stereo not shown) [1.0419] | – | 3.86^[a] |
| CCOC(=O)C(Cc1ccccc1)NC(=O)c1sc(Cl)c(Cl)c1C(F)F (stereo not shown) [1.0420] | – | 4.33^[a] |
| N#CCNC(=O)c1sc(Br)c(Cl)c1F [1.0421] | – | 2.33^[a] |
| COC(=O)CNC(=O)c1sc(Br)c(Cl)c1F [1.0422] | – | 2.47^[a] |
| CCOC(=O)CNC(=O)c1sc(Br)c(Cl)c1F [1.0423] | – | 2.92^[a] |

| Compound | LogP (method marked [a]) | LogP [1] |
| --- | --- | --- |
| COC(=O)C1(NC(=O)c2sc(Br)c(Cl)c2F)CC1 [1.0424] | – | 2.72^[a] |
| CCOC(=O)C(C)NC(=O)c1sc(Br)c(Cl)c1F (stereo not shown) [1.0425] | – | 3.38^[a] |
| CCOC(=O)C1(NC(=O)c2sc(Br)c(Cl)c2F)CC1 [1.0426] | – | 3.09^[a] |
| COC(=O)C(NC(=O)c1sc(Br)c(Cl)c1F)C1CC1 (stereo not shown) [1.0427] | – | 3.38^[a] |
| CCOC(=O)C1(NC(=O)c2sc(Br)c(Cl)c2F)CCC1 [1.0428] | – | 3.73^[a] |
| CCOC(=O)C(NC(=O)c1sc(Br)c(Cl)c1F)C(C)C (stereo not shown) [1.0429] | – | 4.38^[a] |
| COC(=O)C(CC(F)F)NC(=O)c1sc(Br)c(Cl)c1F (stereo not shown) [1.0430] | – | 3.21^[a] |
| CCOC(=O)C(CC(C)C)NC(=O)c1sc(Br)c(Cl)c1F (stereo not shown) [1.0431] | – | 4.64^[a] |
| CCOC(=O)C(CCSC)NC(=O)c1sc(Br)c(Cl)c1F (stereo not shown) [1.0432] | – | 3.96^[a] |
| CCOC(=O)C(Cc1ccccc1)NC(=O)c1sc(Br)c(Cl)c1F (stereo not shown) [1.0433] | – | 4.48^[a] |
| COC(=O)C(CCSC)NC(=O)c1sc(Br)c(Br)c1F (stereo not shown) [1.0434] | – | 3.57^[a] |
| CCOC(=O)C(CC(C)C)NC(=O)c1cc(F)c(Br)s1 (stereo not shown) [1.0435] | – | 3.80^[a] |
| CCOC(=O)C(CC(C)C)NC(=O)c1cc(Br)c(Cl)s1 (stereo not shown) [1.0436] | – | 4.23^[a] |
| CCOC(=O)C(NC(=O)c1cc(Br)c(Cl)s1)C(C)C (stereo not shown) [1.0437] | – | 3.87^[a] |
| COC(=O)C(CC(F)F)NC(=O)c1cc(Br)c(Cl)s1 (stereo not shown) [1.0438] | – | 3.07^[a] |
| CCOC(=O)C1(NC(=O)c2cc(Br)c(Cl)s2)CCC1 [1.0439] | – | 3.44^[a] |
| COC(=O)C(CC(F)F)NC(=O)c1sc(Br)c(Br)c1F (stereo not shown) [1.0440] | – | 3.23^[a] |
| CCOC(=O)C(NC(=O)c1cc(Cl)c(Br)s1)C(C)C (stereo not shown) [1.0441] | – | 3.85^[a] |
| COC(=O)C(CC(F)F)NC(=O)c1cc(Cl)c(Br)s1 (stereo not shown) [1.0442] | – | 2.96^[a] |
| CCOC(=O)C(Cc1ccccc1)NC(=O)c1cc(Cl)c(Br)s1 (stereo not shown) [1.0443] | – | 4.01^[a] |
| CCOC(=O)C(CC(C)C)NC(=O)c1cc(Cl)c(Br)s1 (stereo not shown) [1.0444] | – | 4.19^[a] |
| CCOC(=O)C1(CNC(=O)c2sc(Br)c(Br)c2F)CC1 [1.0445] | – | 3.86^[a] |
| CCOC(=O)C1(NC(=O)c2sc(Br)c(Br)c2F)CCCC1 [1.0446] | – | 4.21^[a] |
| COC(=O)C1(NC(=O)c2sc(Br)c(Br)c2F)CCOCC1 [1.0447] | – | 2.77^[a] |
| COC(=O)CC(C)NC(=O)c1sc(Br)c(Br)c1F (stereo not shown) [1.0448] | – | 3.14^[a] |

| Compound | LogP (method marked [a]) | LogP [1] |
| --- | --- | --- |
| CCOC(=O)CNC(=O)c1sc(Br)c(Br)c1F [1.0449] | – | 2.97^[a] |
| CCOC(=O)CCNC(=O)c1sc(Br)c(Br)c1F [1.0450] | – | 3.11^[a] |
| CCOC(=O)C(NC(=O)c1sc(Br)c(Br)c1F)C(C)C (stereo not shown) [1.0451] | – | 2.63^[a] |
| CCOC(=O)C1(NC(=O)c2cc(Cl)c(Br)s2)CCC1 [1.0452] | – | 3.29^[a] |
| CCOC(=O)CCNC(=O)c1cc(Br)c(Cl)s1 [1.0453] | – | 2.80^[a] |
| CCOC(=O)C1(NC(=O)c2cc(Cl)c(Br)s2)CC1 [1.0454] | – | 2.80^[a] |
| O=C(NC1(C(=O)O)CC1)c1cc(Cl)c(Br)s1 [1.0455] | – | 1.99^[a] |
| CCOC(=O)CCNC(=O)c1cc(F)c(Br)s1 [1.0456] | – | 2.47^[a] |
| CCOC(=O)CNC(=O)c1cc(Br)c(Cl)s1 [1.0457] | – | 2.63^[a] |
| CCOC(=O)C1(NC(=O)c2cc(Br)c(Cl)s2)CC1 [1.0458] | – | 3.43^[a] |
| CCOC(=O)C1(NC(=O)c2cc(F)c(Br)s2)CCC1 [1.0459] | – | 2.98^[a] |
| CCOC(=O)C1(NC(=O)c2cc(F)c(Br)s2)CC1 [1.0460] | – | 2.51^[a] |
| CCOC(=O)CNC(=O)c1cc(Cl)c(Br)s1 [1.0461] | – | 2.59^[a] |
| CCOC(=O)CCNC(=O)c1cc(Cl)c(Br)s1 [1.0462] | – | 2.77^[a] |
| CCOC(=O)C1(NC(=O)c2sc(C)c(Br)c2F)CC1 [1.0463] | – | 2.80^[a] |
| CCOC(=O)CNC(=O)c1cc(C)c(Cl)s1 [1.0464] | – | 2.33^[a] |
| CCOC(=O)CCNC(=O)c1cc(C)c(Cl)s1 [1.0465] | – | 2.49^[a] |
| CCOC(=O)C1(NC(=O)c2cc(C)c(Cl)s2)CC1 [1.0466] | – | 2.52^[a] |
| CCOC(=O)CNC(=O)c1cc(F)c(Br)s1 [1.0467] | – | 2.28^[a] |
| CCOC(=O)C1(NC(=O)c2cc(I)c(I)s2)CC1 [1.0468] | – | 2.98^[a] |
| O=C(NC1(C(=O)O)CC1)c1cc(I)c(I)s1 [1.0469] | – | 2.08^[a] |
| NC(=O)C1(NC(=O)C2(NC(=O)c3cc(I)c(I)s3)CC2)CC1 [1.0470] | – | 1.88^[a] |
| O=C(O)CNC(=O)c1cc(I)c(I)s1 [1.0471] | – | 1.87^[a] |
| COC(=O)C(Cc1ccccc1)NC(=O)c1sc(Br)c(Br)c1F (stereo not shown) [1.0472] | – | 4.06^[a] |
| CSCCC(NC(=O)c1sc(Br)c(Br)c1F)C(=O)O (stereo not shown) [1.0473] | – | 2.75^[a] |
